We go through one molecule from article PMC12817916, “A small-molecule HSP90 inhibitor, NVP-HSP990, alleviates rotavirus infection” (Journal of Virology, 2025).

For series [1] the following is noted: cited from earlier work.
For series [2], the system named is MAPK signaling pathway (ERK1/2, p38 MAPK, SAPK/JNK). In words: Western blot of MAPK components. The format is cell-based. The note with it: WB; for MAPK activation (especially ERK1/2 and p38 MAPK): 100 nM, 20 h. As to the method:
MA104, Caco-2, and HT-29 cells were mock-infected with PBS, infected with RV Wa or SA11 strains (MOI = 3), or treated with 1 µM C16-PAF (C16) for 1 h. After removing the viruses or C16-PAF and washing cells two times with DMEM, the cells were cultivated with 2 mL DMEM containing 100 nM NVP-HSP990 (+), an equal volume of DMSO (−), or 1 µM C16-PAF at 37°C and 5% CO2 for 20 h. Then, the cells in each well (~5 × 10^5 cells) were lysed with 100 µL RIPA lysis buffer (Beyotime, China) plus protease inhibitor cocktail (Thermo Fisher Scientific, USA). The cell lysates were collected in 1.5 mL EP tubes, sonicated five times for 15 s at 80 watts on ice, and clarified by centrifugation at 12,000 × g for 10 min at 4°C. After protein quantification with a BCA kit (Beyotime, China), the protein samples were mixed with 25 µL 5× SDS loading buffer (Beyotime, China), boiled at 100°C for 5 min, chilled on ice, vortexed for seconds, and centrifuged at 12,000 × g for 3 min at room temperature. Twenty micrograms of protein was subjected to protein electrophoresis in precast 4–20% SDS-PAGE gels (Beyotime, China), and then transferred to 0.22 µm PVDF membranes (Millipore, USA). After blocking with 5% BSA, the membranes were incubated with rabbit antibodies to MAPK components (SAPK/JNK, phospho-SAPK/JNK, p38 MAPK, phospho-p38 MAPK, ERK1/2, phospho-ERK1/2) (CST, USA), rabbit anti-RV VP6/VP7 polyclonal antibodies (CUSABIO, China), or mouse mAb to β-actin (Servicebio, China) as an internal reference. Afterward, the membranes were incubated with horseradish peroxidase-conjugated rat anti-rabbit IgG (CST, USA) or rat anti-mouse IgG (CST, USA). Immunoreactive bands were visualized using enhanced chemiluminescence substrate BeyoECL Plus (Beyotime, China).
Fig 4 NVP-HSP990 inhibited MAPK activation and facilitated expression of tight junction-associated proteins in intestinal cells. […]
Supplementary Fig. 7. […] The grayscale values of WB bands were quantified, and the relative protein levels of MAPK components were normalized to β-actin. […]

The test system of another series is HSP90α. The note with it: targets the N-terminal of HSP90α; cited from earlier work.

Regarding `COc1cccc(-c2cc(F)ccc2[C@H]2Cc3nc(N)nc(C)c3C(=O)N2)n1` [NVP-HSP990], in series [1], the brain penetration result is listed as “brain-penetrating” and the oral bioavailability result was “orally bioavailable”. The “MAPK activation caused by non-infectious factors (drug stimulation)” value in series [2] (Caco-2 cells, 1 µM C16-PAF, 100 nM NVP-HSP990, 20 h) is on record as “potently inhibited”. The “MAPK activation (especially ERK1/2 and p38 MAPK)” value in series [2] (RV-infected Caco-2 and HT-29 cells) is “significantly inhibited”. In addition, the “MAPK activation (especially ERK1/2 and p38 MAPK)” value in series [2] (RV-infected MA104 cells) is on record as “not”. Also, in the series on HSP90α, the IC50 was 0.6 nM.
